# Marks after values point to notes of the source that are not given here.
# Experiments:
# [1] = test system: herpesvirus type 1 (HSV1 kos); assay: Antiviral activity against herpesvirus type 1 (TCID50, CRFK cell); type: cell-based
# Procedure: An antiviral activity against herpesvirus type 1 (HSV-1, Herpes simplex virus type 1) (virus which causes mainly herpes labialis, and also causes herpetic stomatitis, herpetic keratitis and herpes simplex encephalitis) was measured. The method will be described below.
# Five-hundred ml of a culture solution of virus (herpesvirus type 1 kos) which had been cultured with CRFK cell (feline kidney cell) was centrifuged at 3,000 rpm for 3 hours, and to the sediment was added 4 ml of distilled water to thereby prepare a viral suspension. The viral suspension was sterilized by filtration using a 0.45 μm membrane filter, and cryopreserved at −80° C. until its usage.
# (§1) Each of the agents was diluted with sterile distilled water, to thereby prepare a dilution series of 1,250 ppm, 125 ppm, 12.5 ppm, 1.25 ppm and 0.125 ppm.
# (§2) In order to neutralize chlorine dioxide in the agent, a 0.0025M sodium thiosulfate solution was prepared using Eagle MEM, and sterilized by filtration using a 0.22 μm membrane filter.
# (§3) To each of the various concentrations of the agents (240 μl) was added virus (60 μl) and stirred, to thereby sensitize the virus with the agent, for 15, 30, 60, 120 or 180 seconds. Forty μl of virus from each reaction liquid was added to a 0.0025M sodium thiosulfate solution (360 μl), to thereby neutralize chlorine dioxide. As a virus control, one diluted with distilled water, instead of the agent, was used.
# (§4) Each of the agent-treated virus liquid and the control virus liquid diluted with distilled water was neutralized with a 0.0025M sodium thiosulfate solution, and then neutralized virus (100 μl) was diluted with Eagle MEM (900 μl), to obtain a 10-fold dilution series of the treated virus.
# (§5) CRFK cell (50 μl/well) was incubated in a 96-well microplate for 3 days, and the diluted virus was inoculated therein (50 μl/well, 4 well/dilution). Each cell was cultured in a CO2 incubator at 37° C. for 5 days, and CPE was observed. TCID50 was calculated based on the above-mentioned equation 1 (Kerber's formula).
# [2] = test system: herpesvirus type 2 (HSV2 UF-strain); assay: Antiviral activity against herpesvirus type 2 (TCID50); type: cell-based
# Procedure: as §1, §2, §3, §4, §5
# The antiviral activity against herpesvirus type 2 (HSV-2, Herpes simplex virus type 2) (virus which causes mainly genital herpes, neonatal herpes, herpetic meningitis and herpetic myelitis) was measured. Substantially the same test as in Example 10 was performed, except that the herpesvirus type 2 (standard strain; UF strain) was used instead of the herpesvirus type 1.
smiles,measurement,setting,value
OCl [Sodium hypochlorite],Reduction of viral infectivity titer,[1]; 1 ppm or less,apparent reduction of the infectivity titer was not observed
same,Reduction of viral infectivity titer,"[1]; 10 ppm, 180 seconds",≤ 1 log
same,Reduction of viral infectivity titer,"[1]; discussion, compared with chlorine dioxide 10 ppm for 15 seconds",apparent reduction of the infectivity titer was not observed
same,Viral infectivity titer TCID50,"[2]; 0.1 ppm, agent sensitized time 0 second",4.25 TCID50/50 μL unit (10^n)
same,Viral infectivity titer TCID50,"[2]; 0.1 ppm, agent sensitized time 30 second",4.25 TCID50/50 μL unit (10^n)
same,Viral infectivity titer TCID50,"[2]; 0.1 ppm, agent sensitized time 60 second",4.25 TCID50/50 μL unit (10^n)
same,Viral infectivity titer TCID50,"[2]; 0.1 ppm, agent sensitized time 120 second",4.25 TCID50/50 μL unit (10^n)
same,Viral infectivity titer TCID50,"[2]; 1 ppm, agent sensitized time 0 second",4.25 TCID50/50 μL unit (10^n)
same,Viral infectivity titer TCID50,"[2]; 1 ppm, agent sensitized time 30 second",4 TCID50/50 μL unit (10^n)
same,Viral infectivity titer TCID50,"[2]; 1 ppm, agent sensitized time 60 second",3.75 TCID50/50 μL unit (10^n)
same,Viral infectivity titer TCID50,"[2]; 1 ppm, agent sensitized time 120 second",3.75 TCID50/50 μL unit (10^n)
same,Viral infectivity titer TCID50,"[2]; 10 ppm, agent sensitized time 0 second",4.25 TCID50/50 μL unit (10^n)
same,Viral infectivity titer TCID50,"[2]; 10 ppm, agent sensitized time 30 second",0 TCID50/50 μL unit (10^n)
same,Viral infectivity titer TCID50,"[2]; 10 ppm, agent sensitized time 60 second",0 TCID50/50 μL unit (10^n)
same,Viral infectivity titer TCID50,"[2]; 10 ppm, agent sensitized time 120 second",0 TCID50/50 μL unit (10^n)

# Source: US20110052725A1, “THERAPEUTIC AGENT FOR INFECTIOUS SKIN AND MUCOSAL DISEASE” (priority 2007, published 2011)
